Test [1] has as its target Human immunodeficiency virus type 1 reverse transcriptase (Human immunodeficiency virus 1, UniProt Q72547).
For test [2], the target named is Human immunodeficiency virus type 1 reverse transcriptase (Human immunodeficiency virus 1, UniProt Q72547, Y181C).
The target in test [3] is Human immunodeficiency virus type 1 reverse transcriptase (Human immunodeficiency virus 1, UniProt Q72547, P236L).
In test [4] the test system is Human immunodeficiency virus 1. Nature of the test: Concentration required to inhibit P24 production by 90% against U-90,152 of HIV-1 MF (P236L). Format: functional.
Test [5] deals with Human immunodeficiency virus 1. The experiment in a line: Concentration required to inhibit P24 production by 90% against L-697661 of HIV-1 IIIB (Y181C). The class given is functional.

These results are taken from ChEMBL document CHEMBL1129647, “Targeting delavirdine/atevirdine resistant HIV-1: identification of (alkylamino)piperidine-containing bis(heteroaryl)piperazines as broad spectrum HIV-1 reverse transcriptase inhibitors” (J Med Chem, 1996).

Some results are limits rather than exact numbers.

As to `CCNc1cccnc1N(CC)C1CCN(C(=O)c2cc3cc(NS(=O)(=O)CC)ccc3[nH]2)CC1`, the results for the half-maximal inhibitory concentration (IC50) in test [1], in test [2] and in test [3] were 400 nM, 480 nM and 260 nM, respectively.

As to `CN(c1ncccc1NC1(C)CC1)C1CCN(C(=O)c2cc3cc(NS(C)(=O)=O)ccc3[nH]2)CC1`, the IC50 in test [1] was determined as 160 nM; in test [2], 370 nM; in test [3] it was 1450 nM. Also, the results for the IC90 in test [4] and in test [5] were more than 300 nM and 2300 nM, respectively.

Turning to `CCNc1cccnc1N(CC)C1CCN(C(=O)c2cc3cc(NC(=O)N4CCN(C)CC4)ccc3[nH]2)CC1`, the figures for the concentration for half-maximal inhibition (IC50) in test [1], in test [2] and in test [3] were 140 nM, 1230 nM and 240 nM, respectively.

`CCCNc1cccnc1N(CC)C1CCN(C(=O)c2cc3cc(NS(C)(=O)=O)ccc3[nH]2)CC1`: the IC50 worked out at 130 nM in test [1], 450 nM in test [2] and 280 nM in test [3]. Also, the IC90 was 400 nM in test [4] and 140 nM in test [5].

As to `CN(c1ncccc1NC1CC1)C1CCN(C(=O)c2cc3cc(NS(C)(=O)=O)ccc3[nH]2)CC1`, the IC50 stood at 90 nM in test [1], 280 nM in test [2] and 210 nM in test [3]. Further, the IC90 in test [4] was more than 10000 nM; in test [5], 4400 nM.

For the compound `CCCN(c1ncccc1NC(C)C)C1CCN(C(=O)c2cc3cc(NC(=O)N4CCN(C)CC4)ccc3[nH]2)CC1`, the values for the 50% inhibitory concentration (IC50) in test [1], in test [2] and in test [3] were 190 nM, 860 nM and 400 nM, respectively.

For `CCNc1cccnc1N(CC)C1CCN(C(=O)c2cc3cc(NS(=O)(=O)N4CCN(C)CC4)ccc3[nH]2)CC1`, the figures for the concentration for half-maximal inhibition (IC50) in test [1], in test [2] and in test [3] were 240 nM, 1110 nM and 440 nM, respectively.

With `CCNc1cccnc1N(CC)C1CCN(C(=O)c2cc3cc(NS(=O)(=O)C(C)C)ccc3[nH]2)CC1`, the figures for the IC50 in test [1], in test [2] and in test [3] were 450 nM, 660 nM and 330 nM, respectively.

As to `CCCN(c1ncccc1NC(C)C)C1CCN(C(=O)c2cc3cc(NS(C)(=O)=O)ccc3[nH]2)CC1`, the IC50 in test [1] was found to be 240 nM; in test [2], 610 nM; in test [3] it was 240 nM. Further, the IC90 in test [4] was 220 nM; in test [5], 60 nM.

In the case of `CCNc1cccnc1N(C(C)C)C1CCN(C(=O)c2cc3cc(NS(C)(=O)=O)ccc3[nH]2)CC1`, the half-maximal inhibitory concentration (IC50) in test [1] was 380 nM; in test [2], 3600 nM; in test [3], 2600 nM.

As to `CC(C)Nc1cccnc1N(C1CC1)C1CCN(C(=O)c2cc3ccccc3[nH]2)CC1`, the half-maximal inhibitory concentration (IC50) in test [1] was found to be 700 nM; in test [2], 2310 nM; in test [3], 590 nM.

In the case of `CC(C)Nc1ccc(Cl)nc1N(C)C1CCN(C(=O)c2cc3cc(NS(C)(=O)=O)ccc3[nH]2)CC1`, the IC50 in test [1] was found to be 360 nM; in test [2] it was 2130 nM; in test [3] it was 1700 nM.

Take `CCC(C)(C)Nc1cccnc1N(C)C1CCN(C(=O)c2cc3cc(NS(C)(=O)=O)ccc3[nH]2)CC1`: the half-maximal inhibitory concentration (IC50) in test [1] is 350 nM; in test [2] it was 530 nM; in test [3] it was 3330 nM.

On to `CC(C)Nc1cccnc1N(C)C1CCN(C(=O)c2cc3ccc(OCCOCCOCCO)cc3[nH]2)CC1`, for which the IC50 in test [1] stood at 300 nM; in test [2] it was 770 nM; in test [3] it was 410 nM.

Take `CCCN(c1ncccc1NCC)C1CCN(C(=O)c2cc3cc(NS(C)(=O)=O)ccc3[nH]2)CC1`: the figures for the concentration for half-maximal inhibition (IC50) in test [1], in test [2] and in test [3] were 150 nM, 950 nM and 520 nM, respectively.

Consider `CC(C)Nc1cccnc1N(C)C1CCN(C(=O)c2cc3ccc(CO)cc3[nH]2)CC1`, for which the figures for the 50% inhibitory concentration (IC50) in test [1], in test [2] and in test [3] were 170 nM, 490 nM and 370 nM, respectively.

Regarding `CN(c1ncccc1NCC1CC1)C1CCN(C(=O)c2cc3cc(NS(C)(=O)=O)ccc3[nH]2)CC1`, the values for the 50% inhibitory concentration (IC50) in test [1], in test [2] and in test [3] were 520 nM, 2910 nM and 14600 nM, respectively.

For `CCN(c1ncccc1NC(C)C)C1CCN(C(=O)c2cc3cc(NS(C)(=O)=O)ccc3[nH]2)CC1`, the IC50 in test [1] was found to be 250 nM; in test [2], 400 nM; in test [3], 200 nM.
